# Molecular target: T1, human metabotropic glutamate receptor 5 (hmGluR5) (Homo sapiens, UniProt P41594)
# T1 construct: expressed in transfected cells
# Assay: Calcium mobilization (FLIPR) assay for negative allosteric modulation, EC80 glutamate, hmGluR5 in HEK 293
# Format: cell-based
# Details: HEK293; hmGluR5, inhibition of EC80 glutamate response; read-out: FLIPR maximum inhibition
# Description: The cDNA for rat metabotropic glutamate receptor 5 (rmGluR5) and the cDNA for human metabotropic glutamate receptor 5 (hmGluR5) were generous gifts from S. Nakanishi (Kyoto University, Kyoto, Japan). The rmGluR5 or hmGluR5 was stably expressed in a HEK 293 cell line and grown in Dulbecco's Modified Eagle Medium (DMEM) (Invitrogen, Carlsbad, Calif.) with supplements (10% bovine calf serum, 4 mM glutamine, 100 units/mL penicillin, 100 μg/mL streptomycin and 0.75 mM G1418) at 37° C., 5% CO2. Twenty-four hours prior to assay, cells were seeded into 384-well black wall microtiter plates coated with poly-D-lysine. Just prior to assay, media was aspirated and cells dye-loaded (25 μL/well) with 3 μM Fluo-4/0.01% pluronic acid in assay buffer (Hank's Balanced Saline Solution (HBSS)): 150 mM NaCl, 5 mM KCl, 1 mM CaCl2, 1 mM MgCl2, plus 20 mM N-2-Hydroxyethylpiperazine-N′-2-ethanesulfonic acid (HEPES), pH 7.4, 0.1% bovine serum albumin (BSA) and 2.5 mM probenicid) for 1 hour in 5% CO2 at 37° C. After excess dye was discarded, cells were washed in assay buffer and layered with a final volume equal to 30 μL/well. Basal fluorescence is monitored in a fluorometric imaging plate reader (FLIPR) (Molecular Devices, Sunnyvale, Calif.) with an excitation wavelength of 488 nm and an emission range of 500 to 560 nm. Laser excitation energy was adjusted so that basal fluorescence readings were approximately 10,000 relative fluorescent units. Cells were stimulated with an EC20 or an EC80 concentration of glutamate in the presence of a compound to be tested, both diluted in assay buffer, and relative fluorescent units were measured at defined intervals (exposure=0.6 sec) over a 3 min period at room temperature. Basal readings derived from negative controls were subtracted from all samples. Maximum change in fluorescence was calculated for each well. Concentration-response curves derived from the maximum change in fluorescence were analyzed by nonlinear regression (Hill equation). A negative modulator can be identified from these concentration-response curves if a compound produces a concentration dependent inhibition of the EC80 glutamate response.
# T1 sequence (P41594 21-1212): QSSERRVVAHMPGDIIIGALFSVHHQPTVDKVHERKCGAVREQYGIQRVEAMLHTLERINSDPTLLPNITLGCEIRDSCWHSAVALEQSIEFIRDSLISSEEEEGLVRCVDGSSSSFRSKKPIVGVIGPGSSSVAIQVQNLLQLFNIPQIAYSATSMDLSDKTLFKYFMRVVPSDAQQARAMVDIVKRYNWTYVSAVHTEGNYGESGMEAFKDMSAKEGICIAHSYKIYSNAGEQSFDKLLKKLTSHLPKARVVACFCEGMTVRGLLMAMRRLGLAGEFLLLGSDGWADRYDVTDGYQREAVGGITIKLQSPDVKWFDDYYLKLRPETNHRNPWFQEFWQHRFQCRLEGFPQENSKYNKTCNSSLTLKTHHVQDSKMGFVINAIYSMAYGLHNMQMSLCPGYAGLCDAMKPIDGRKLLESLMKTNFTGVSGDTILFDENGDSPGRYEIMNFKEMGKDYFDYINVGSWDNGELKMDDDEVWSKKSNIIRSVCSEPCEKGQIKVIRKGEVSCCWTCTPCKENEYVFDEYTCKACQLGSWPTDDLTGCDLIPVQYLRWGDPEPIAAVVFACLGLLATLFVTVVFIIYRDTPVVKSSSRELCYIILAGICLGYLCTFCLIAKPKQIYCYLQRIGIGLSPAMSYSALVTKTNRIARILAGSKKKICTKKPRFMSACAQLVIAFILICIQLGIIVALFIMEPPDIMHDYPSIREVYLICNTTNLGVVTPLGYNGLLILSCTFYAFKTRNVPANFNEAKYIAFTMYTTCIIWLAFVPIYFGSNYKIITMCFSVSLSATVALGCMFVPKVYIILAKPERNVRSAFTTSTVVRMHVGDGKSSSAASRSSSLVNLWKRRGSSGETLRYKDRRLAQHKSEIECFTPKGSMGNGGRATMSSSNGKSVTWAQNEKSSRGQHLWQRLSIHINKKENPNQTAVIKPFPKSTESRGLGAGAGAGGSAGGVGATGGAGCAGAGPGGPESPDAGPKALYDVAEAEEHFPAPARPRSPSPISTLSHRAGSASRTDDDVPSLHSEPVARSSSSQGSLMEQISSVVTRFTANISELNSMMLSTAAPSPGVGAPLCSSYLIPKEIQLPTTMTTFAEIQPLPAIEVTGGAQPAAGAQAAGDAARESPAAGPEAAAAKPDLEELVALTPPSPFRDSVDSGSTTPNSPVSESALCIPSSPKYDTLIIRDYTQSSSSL
row,SMILES,Emax
1,"Cc1cccc(C(=O)N[C@@H]2C[C@@H](O)C[C@@]3(CCN(c4cccc(F)c4)C3=O)C2)n1 (relative stereo) [Example 126, trans-6-Methyl-pyridine-2-carboxylic acid [2-(3-fluoro-phenyl)-9-hydroxy-1-oxo-2-aza-spiro[4.5]dec-7-yl]-amide]",47 to 93%
2,"COc1cccc(N2CC[C@]3(CCC[C@H](NC(=O)c4cccc(F)c4)C3)C2=O)c1 (relative stereo) [Example 130, cis-3-Fluoro--N-[-2-(3-methoxy-phenyl)-1-oxo-2-aza-spiro[4.5]dec-7-yl]-benzamide]",47 to 93%
3,"O=C(N[C@H]1CCC[C@]2(CCN(c3cccc(O)c3)C2=O)C1)c1cccc(F)c1 (relative stereo) [Example 131, cis-3-Fluoro-N-[2-(3-hydroxy-phenyl)-1-oxo-2-aza-spiro[4.5]dec-7-yl]-benzamide]",47 to 93%
4,COc1ccc(N2CC[C@]3(CCC[C@H](NC(=O)c4cccc(F)c4)C3)C2=O)cc1 (relative stereo) [Example 133],47 to 93%
5,"O=C(N[C@H]1CCC[C@]2(CCN(c3cccc(CCCN4CCOCC4)c3)C2=O)C1)c1cccc(F)c1 (relative stereo) [Example 134, cis-3-Fluoro-N-{2-[3-(3-morpholin-4-yl-propyl)-phenyl]-1-oxo-2-aza-spiro[4.5]dec-7-yl}-benzamide]",47 to 93%
6,"O=C(N[C@H]1CCC[C@]2(CCN(c3cccc(OCC(=O)N4CCCC4)c3)C2=O)C1)c1cccc(F)c1 (relative stereo) [Example 136, cis-3-Fluoro-N-{1-oxo-2-[3-(2-oxo-2-pyrrolidin-1-yl-ethoxy)-phenyl]-2-aza-spiro[4.5]dec-7-yl}-benzamide]",47 to 93%
7,"O=C(N[C@H]1CCC[C@]2(CCN(c3cccc(F)c3)C2=O)C1)c1nccs1 (relative stereo) [Example 137, cis-Thiazole-2-carboxylic acid [2-(3-fluoro-phenyl)-1-oxo-2-aza-spiro[4.5]dec-7-yl]-amide]",47 to 93%
8,"CN(C)c1ccc(N2CC[C@]3(CCC[C@H](NC(=O)c4cccc(F)c4)C3)C2=O)cc1 (relative stereo) [Example 138, cis-N-[2-(4-Dimethylamino-phenyl)-1-oxo-2-aza-spiro[4.5]dec-7-yl]-3-fluoro-benzamide]",47 to 93%
9,"O=C(N[C@H]1CCC[C@]2(CCN(c3nccs3)C2=O)C1)c1cccc(F)c1 (relative stereo) [Example 139, cis-3-Fluoro-N-(1-oxo-2-thiazol-2-yl-2-aza-spiro[4.5]dec-7-yl)-benzamide]",47 to 93%
10,Cc1nccc(N2CC[C@]3(CCC[C@H](NC(=O)c4nccs4)C3)C2=O)n1 (relative stereo) [Example 140],47 to 93%
11,Cc1nccc(N2CC[C@]3(CCC[C@H](NC(=O)c4ccc(F)cn4)C3)C2=O)n1 (relative stereo) [Example 149],47 to 93%
12,"O=C(N[C@H]1CCC[C@]2(CCN(c3ccnc(C(F)(F)F)n3)C2=O)C1)c1cccc(F)c1 (relative stereo) [Example 150, cis-3-Fluoro-N-[1-oxo-2-(2-trifluoromethyl-pyrimidin-4-yl)-2-aza-spiro[4.5]dec-7-yl]-benzamide]",47 to 93%
13,"Cc1cc(N2CC[C@]3(CCC[C@H](NC(=O)c4cccc(F)c4)C3)C2=O)nc(C)n1 (relative stereo) [Example 151, cis-N-[2-(2,6-Dimethyl-pyrimidin-4-yl)-1-oxo-2-aza-spiro[4.5]dec-7-yl]-3-fluoro-benzamide]",47 to 93%
14,CCCN1CC[C@]2(CCC[C@H](NC(=O)c3cccc(C)n3)C2)C1=O (relative stereo) [Example 155],47 to 93%
15,"O=C(N[C@@H]1CC(F)(F)C[C@@]2(CCN(c3cccc(F)c3)C2=O)C1)c1ccccn1 (single isomer, unassigned) [Example 98]",88 to 93%
16,"O=C(N[C@H]1CC(F)(F)C[C@]2(CCN(c3cccc(F)c3)C2=O)C1)c1ccccn1 (single isomer, unassigned) [Example 99]",88 to 93%
17,"O=C1c2ccccc2CN1C1CCCC2(CCN(c3cccc(Cl)c3)C2=O)C1 (single isomer, unassigned) [Example 100, cis-2-[2-(3-chloro-phenyl)-1-oxo-2-aza-spiro[4.5]dec-7-yl]-2,3-dihydro-isoindol-1-one]",47 to 93%
18,"O=C(N[C@H]1CC(F)(F)C[C@@]2(CCN(c3cccc(F)c3)C2=O)C1)c1ccccn1 (single isomer, unassigned) [Example 101]",47 to 93%
19,"O=C(N[C@@H]1CC(F)(F)C[C@]2(CCN(c3cccc(F)c3)C2=O)C1)c1ccccn1 (single isomer, unassigned) [Example 102]",47 to 93%
20,"Cc1nccc(C(=O)N[C@H]2CC(F)(F)C[C@]3(CCN(c4cccc(F)c4)C3=O)C2)n1 (single isomer, unassigned) [Example 103]",47 to 93%
21,"Cc1nccc(C(=O)N[C@@H]2CC(F)(F)C[C@@]3(CCN(c4cccc(F)c4)C3=O)C2)n1 (single isomer, unassigned) [Example 104]",47 to 93%
22,"O=C(N[C@H]1CC(F)(F)C[C@]2(CCN(c3cc(F)cc(F)c3)C2=O)C1)c1ccccn1 (single isomer, unassigned) [Example 113]",47 to 93%

# The remaining lines, values ahead:
row,Emax,SMILES
1,47 to 93%,"COc1cc(F)cc(N2CC[C@]3(CCC[C@H](NC(=O)c4cccc(F)c4)C3)C2=O)c1 (relative stereo) [Example 135, cis-3-Fluoro-N-[2-(3-fluoro-5-methoxy-phenyl)-1-oxo-2-aza-spiro[4.5]dec-7-yl]-benzamide]"
2,47 to 93%,"COc1cc(F)cc(N2CC[C@@]3(CCC[C@@H](NC(=O)c4ccnc(C)n4)C3)C2=O)c1 (relative stereo) [Example 141, cis-2-Methyl-pyrimidine-4-carboxylic acid [2-(3-fluoro-5-methoxy-phenyl)-1-oxo-2-aza-spiro[4.5]dec-7-yl]-amide]"
3,47 to 93%,"N#Cc1cc(F)cc(N2CC[C@@]3(CCC[C@@H](NC(=O)c4cccc(F)c4)C3)C2=O)c1 (relative stereo) [Example 142, cis-N-[2-(3-Cyano-5-fluoro-phenyl)-1-oxo-2-aza-spiro[4.5]dec-7-yl]-3-fluoro-benzamide]"
4,47 to 93%,"O=C(N[C@@H]1CCC[C@@]2(CCN(c3cc(F)cc(F)c3)C2=O)C1)c1nccs1 (relative stereo) [Example 143, cis-Thiazole-2-carboxylic acid [2-(3,5-difluoro-phenyl)-1-oxo-2-aza-spiro[4.5]dec-7-yl]-amide]"
5,47 to 93%,"Cc1nc(C(=O)N[C@@H]2CCC[C@@]3(CCN(c4cc(F)cc(F)c4)C3=O)C2)cs1 (relative stereo) [Example 144, cis-2-Methyl-thiazole-4-carboxylic acid [2-(3,5-difluoro-phenyl)-1-oxo-2-aza-spiro[4.5]dec-7-yl]-amide]"
6,47 to 93%,"CCCCC(=O)N[C@@H]1CCC[C@@]2(CCN(c3cc(F)cc(F)c3)C2=O)C1 (relative stereo) [Example 145, cis-Pentanoic acid [2-(3,5-difluoro-phenyl)-1-oxo-2-aza-spiro[4.5]dec-7-yl]-amide]"
7,47 to 93%,"CCCC(=O)N[C@@H]1CCC[C@@]2(CCN(c3cc(F)cc(F)c3)C2=O)C1 (relative stereo) [Example 146, cis-N-[2-(3,5-Difluoro-phenyl)-1-oxo-2-aza-spiro[4.5]dec-7-yl]-butyramide]"
8,47 to 93%,Cc1cccc(C(=O)N[C@H]2CCC[C@]3(CCN(C)C3=O)C2)n1 (relative stereo) [Example 153]
9,47 to 93%,CCN1CC[C@]2(CCC[C@H](NC(=O)c3cccc(C)n3)C2)C1=O (relative stereo) [Example 154]
10,73 to 95%,"Cc1cccc(C(=O)N[C@@H]2CCC[C@@]3(CCN(c4cc(F)cc(F)c4)C3=O)C2)n1 (single isomer, unassigned) [Example 67]"
11,73 to 95%,"Cc1cccc(C(=O)N[C@H]2CCC[C@]3(CCN(c4cc(F)cc(F)c4)C3=O)C2)n1 (single isomer, unassigned) [Example 81]"
12,47 to 93%,"O=C(N[C@@H]1CC(F)(F)C[C@@]2(CCN(c3cc(F)cc(F)c3)C2=O)C1)c1ccccn1 (single isomer, unassigned) [Example 114]"
13,47 to 93%,"Cc1nccc(C(=O)N[C@@H]2C[C@@](C)(O)C[C@@]3(CCN(c4cc(F)cc(F)c4)C3=O)C2)n1 (single isomer, unassigned) [Example 118, trans-2-Methyl-pyrimidine-4-carboxylic acid [2-(3,5-difluoro-phenyl)-9-hydroxy-9-methyl-1-oxo-2-aza-spiro[4.5]dec-7-yl]-amide]"
